Experimental data reported in US10405547B2, “Substituted cyclic amides as herbicides” (FMC Corporation, priority 2015, dated 2019).

Assays:
Assay type in all cases: in vivo
[1] = system: foxtail, giant (Setaria faberii); test: Test A preemergence, giant foxtail; details: 0 to 100 scale (0 no effect, 100 complete control)
Procedure, shortened: (§1)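 Ratings use a 0–100 scale, where 0 means no effect and 100 means complete control, and come from visual comparison with untreated plants roughly 10 days after treatment. Compounds were applied in a surfactant-containing, non-phytotoxic solvent, either to soil after seeding or to foliage of small seedlings.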

corn (Zea mays) = test: Test A postemergence, corn; details: visual injury, 0 to 100 scale (0 no effect, 100 complete control), approximately 10 days
Procedure, shortened: as §1

[2] = system: pigweed (Amaranthus retroflexus); test: Test A postemergence, pigweed; details: visual injury, 0 to 100 scale (0 no effect, 100 complete control), approximately 10 days
Procedure, shortened: as §1

[3] = system: ryegrass, Italian (Lolium multiflorum); test: Test A preemergence, Italian ryegrass; details: 0 to 100 scale (0 no effect, 100 complete control)
Procedure, shortened: as §1

[4] = system: galium (catchweed bedstraw, Galium aparine); test: Test A postemergence, galium; details: visual injury, 0 to 100 scale (0 no effect, 100 complete control), approximately 10 days
Procedure, shortened: as §1

[5] = system: ducksalad (Heteranthera limosa); test: Test B flooded paddy test, ducksalad; details: 250 g ai/ha, applied to paddy water, visual rating after 13 to 15 days, scale 0 (no effect) to 100 (complete control)
Procedure, shortened: (§2)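 In-water treatment: compound dosed into 3 cm flood over soil, water level unchanged throughout. Controls run alongside; visual assessment at day 13–15.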

kochia (Kochia scoparia) [6] = test: Test A postemergence, kochia; details: visual injury, 0 to 100 scale (0 no effect, 100 complete control), approximately 10 days
Procedure, shortened: as §1

[7] = system: blackgrass (Alopecurus myosuroides); test: Test A postemergence, blackgrass; details: visual injury, 0 to 100 scale (0 no effect, 100 complete control), approximately 10 days
Procedure, shortened: as §1

[8] = system: ragweed (common ragweed, Ambrosia elatior); test: Test A postemergence, ragweed; details: visual injury, 0 to 100 scale (0 no effect, 100 complete control), approximately 10 days
Procedure, shortened: as §1

rice (Oryza sativa) = test: Test B flooded paddy test, rice; details: 250 g ai/ha, applied to paddy water, visual rating after 13 to 15 days, scale 0 (no effect) to 100 (complete control)
Procedure, shortened: as §2

[9] = system: barnyardgrass (Echinochloa crus-galli); test: Test A preemergence, barnyardgrass; details: 0 to 100 scale (0 no effect, 100 complete control)
Procedure, shortened: as §1

[10] = system: ryegrass, Italian (Lolium multiflorum); test: Test A postemergence, Italian ryegrass; details: visual injury, 0 to 100 scale (0 no effect, 100 complete control), approximately 10 days
Procedure, shortened: as §1

[11] = system: pigweed (Amaranthus retroflexus); test: Test A preemergence, pigweed; details: 0 to 100 scale (0 no effect, 100 complete control)
Procedure, shortened: as §1

[12] = system: sedge, umbrella (small-flower umbrella sedge, Cyperus difformis); test: Test B flooded paddy test, umbrella sedge; details: 250 g ai/ha, applied to paddy water, visual rating after 13 to 15 days, scale 0 (no effect) to 100 (complete control)
Procedure, shortened: as §2

kochia (Kochia scoparia) [13] = test: Test A preemergence, kochia; details: 0 to 100 scale (0 no effect, 100 complete control)
Procedure, shortened: as §1

[14] = system: barnyardgrass (Echinochloa crus-galli); test: Test B flooded paddy test, barnyardgrass; details: 250 g ai/ha, applied to paddy water, visual rating after 13 to 15 days, scale 0 (no effect) to 100 (complete control)
Procedure, shortened: as §2

[15] = system: barnyardgrass (Echinochloa crus-galli); test: Test A postemergence, barnyardgrass; details: visual injury, 0 to 100 scale (0 no effect, 100 complete control), approximately 10 days
Procedure, shortened: as §1

[16] = system: ragweed (common ragweed, Ambrosia elatior); test: Test A preemergence, ragweed; details: 0 to 100 scale (0 no effect, 100 complete control)
Procedure, shortened: as §1

[17] = system: foxtail, giant (Setaria faberii); test: Test A postemergence, giant foxtail; details: visual injury, 0 to 100 scale (0 no effect, 100 complete control), approximately 10 days
Procedure, shortened: as §1

[18] = system: wheat (Triticum aestivum); test: Test A postemergence, wheat; details: visual injury, 0 to 100 scale (0 no effect, 100 complete control), approximately 10 days
Procedure, shortened: as §1

SMILES	Plant response rating, Foxtail, Giant ([1]; 125 g ai/ha)	Plant response rating, Foxtail, Giant ([1]; 500 g ai/ha)	Plant response rating, Corn (corn (Zea mays); 125 g ai/ha)	Plant response rating, Corn (corn (Zea mays); 500 g ai/ha)	Plant response rating, Pigweed ([2]; 125 g ai/ha)	Plant response rating, Pigweed ([2]; 500 g ai/ha)	Plant response rating, Ryegrass, Italian ([3]; 125 g ai/ha)	Plant response rating, Ryegrass, Italian ([3]; 500 g ai/ha)	Plant response rating, Galium ([4]; 125 g ai/ha)	Plant response rating, Galium ([4]; 500 g ai/ha)	Plant response rating, Ducksalad (Flood) [5]	Plant response rating, Kochia (kochia (Kochia scoparia) [6]; 125 g ai/ha)	Plant response rating, Kochia (kochia (Kochia scoparia) [6]; 500 g ai/ha)	Plant response rating, Blackgrass ([7]; 125 g ai/ha)	Plant response rating, Blackgrass ([7]; 500 g ai/ha)	Plant response rating, Ragweed ([8]; 125 g ai/ha)	Plant response rating, Ragweed ([8]; 500 g ai/ha)	Plant response rating, Rice (Flood) (rice (Oryza sativa))	Plant response rating, Barnyardgrass ([9]; 125 g ai/ha)	Plant response rating, Ryegrass, Italian ([10]; 125 g ai/ha)	further results
CN1CC(c2cccc(Sc3ccccc3)c2)C(C(=O)Nc2cccc(F)c2F)C1=O (single isomer, unassigned) [Compound 51]	90	90	0	30	0	0	0	20	40	50	40	0	30	0	0	0	20	0	20	20	Plant response rating, Ryegrass, Italian ([10]; 500 g ai/ha): 30; Plant response rating, Pigweed ([11]; 125 g ai/ha): 0; Plant response rating, Pigweed ([11]; 500 g ai/ha): 0; Plant response rating, Sedge, Umbrella (Flood) [12]: 0; Plant response rating, Kochia (kochia (Kochia scoparia) [13]; 125 g ai/ha): 20; Plant response rating, Kochia (kochia (Kochia scoparia) [13]; 500 g ai/ha): 50; Plant response rating, Barnyardgrass (Flood) [14]: 0; Plant response rating, Barnyardgrass ([15]; 125 g ai/ha): 0; Plant response rating, Barnyardgrass ([15]; 500 g ai/ha): 30; Plant response rating, Ragweed ([16]; 125 g ai/ha): 0; Plant response rating, Ragweed ([16]; 500 g ai/ha): 0; Plant response rating, Foxtail, Giant ([17]; 125 g ai/ha): 10; Plant response rating, Foxtail, Giant ([17]; 500 g ai/ha): 40; Plant response rating, Wheat ([18]; 125 g ai/ha): 0; Plant response rating, Wheat ([18]; 500 g ai/ha): 20
CN1CC(c2cccc(OC(F)(F)C(F)OC(F)(F)F)c2)C(C(=O)Nc2cccc(F)c2F)C1=O (centres unmarked) [Compound 48]	80	90	0	40	60	90	30	30	60	60	80	30	70	0	0	0	0	0	80	0	Plant response rating, Barnyardgrass ([9]; 500 g ai/ha): 90; Plant response rating, Ryegrass, Italian ([10]; 500 g ai/ha): 40; Plant response rating, Pigweed ([11]; 125 g ai/ha): 70; Plant response rating, Pigweed ([11]; 500 g ai/ha): 70; Plant response rating, Sedge, Umbrella (Flood) [12]: 0; Plant response rating, Kochia (kochia (Kochia scoparia) [13]; 125 g ai/ha): 0; Plant response rating, Kochia (kochia (Kochia scoparia) [13]; 500 g ai/ha): 20; Plant response rating, Barnyardgrass (Flood) [14]: 0; Plant response rating, Barnyardgrass ([15]; 125 g ai/ha): 20; Plant response rating, Barnyardgrass ([15]; 500 g ai/ha): 50; Plant response rating, Ragweed ([16]; 125 g ai/ha): 0; Plant response rating, Ragweed ([16]; 500 g ai/ha): 0; Plant response rating, Foxtail, Giant ([17]; 125 g ai/ha): 60; Plant response rating, Foxtail, Giant ([17]; 500 g ai/ha): 80; Plant response rating, Wheat ([18]; 125 g ai/ha): 0; Plant response rating, Wheat ([18]; 500 g ai/ha): 30
